Measured values taken from US6448475B1, “Manipulation of tocopherol levels in transgenic plants by transformation with a synechocystis 2-methyl-6-phytylplastoquinol/2-methyl-6-solanylplastoquinol-9 methyltransferase” (The University and Community College System of Nevada, priority 1998, dated 2002).

How the values were obtained:
[1] = In vitro 2-methyl-6-phytylplastoquinol methyltransferase assay of E. coli expressed SLL0418; assay type: biochemical, Synechocystis; details: E. coli extract
Description: (§1) A second approach to characterizing the Synechocystis genes and proteins involved in tocopherol biosynthesis involved the expression and biochemical analysis of these genes in E. coli. The Synechocystis SLL0418 gene sequence was subcloned from pSLL0418-1 as a Nde1/Hind3 fragment into the Nde1 and Hind3 sites of the E. coli expression vector, pET30B. The resulting plasmid construct was designated p041798 and was transformed into the E. coli strain BL21(DE3)pLysS. Protein expression was induced with 1 mM isopropylthio-b-galactoside (IPTG) in the cells transformed with p041798 and cells transformed with the empty pET30B vector. Induced cultures were grown for 3 hours at 28° C. in a shaking incubator after which the cells were harvested by centrifugation at 8,000 g for 10 minutes at 4° C. and stored at […] The cell pellets were resuspended in 50 mM Tris-HCl pH 8.0, 5 mM DTT, 1 mM PMSF and homogenized with four 10 second burst with a sonicator. Triton X 100 was then added to a final concentration of 1% and the mixture was incubated on ice for 30 minutes. The insoluble material was then removed by centrifugation at 40,000 g for 30 minutes and the supernatant was saved for methyltransferase assays.
A mixture of 6 different isomers of methylphytylplastoquinone was synthesized as described by Henry et al. (1987) Biochem J 242: 367-373. […]

[2] = In vitro 2-methyl-6-solanylplastoquinol methyltransferase assay of E. coli expressed SLL0418; assay type: biochemical, Synechocystis; details: E. coli extract
Description: as §1
The 2-methyl-6-solanylplastoquinol substrate was purified from Iris bulbs. One hundred gm of iris bulbs were homogenized in 500 mL acetone. […]

With “2-methyl-6-phytylplastoquinol/2-methyl-6-solanylplastoquinol-9 methyltransferase [SLL0418]” the “methylation of 2-methyl-6-phytylplastoquinol to form 2,3-dimethylphytlyplastoquinol” value ([1]; result in words) was “able to methylate”, the “amount of 14C labeled 2,3-dimethyl-6-phytylplastoquinol product produced” value ([1]; substrate 2-methyl-6-phytylplastoquinol, [14C-methyl]-S-adenosylmethionine, 30 minutes, room temperature) was 484 CPM and the “methylation of 2-methyl-6-solanylplastoquinol to form 2,3-dimethylsolanylplastoquinol” value ([2]; result in words) was “able to methylate”. The “amount of 14C labeled 2,3-dimethylsolanylplastoquinol product produced” value ([2]; substrate 2-methyl-6-solanylplastoquinol, [14C-methyl]-S-adenosylmethionine, 30 minutes, room temperature) was 174 CPM.
